Test results reported in patent US11312720B2, “Hydrochloride salt of 2-((3R,4S)-1-(5-(4-chloro-3,5-difluorophenyl)-7-((2-fluoro-6-methylphenyl)(methyl)amino)pyrazolo[1,5-a]pyrimidine-2-carbonyl)-3-methoxypiperidin-4-yl) acetic acid and crystals thereof” (Eisai R&D Management Co., Ltd., priority 2018, dated 2022).
≈ marks a conversion by molar mass, not a printed value.

Assays:
[1] = Dissolution test by the paddle method in FaSSIF; format: physicochemical; details: FaSSIF pH 6.5, 37° C., 50 rpm, about 10 mg in 100 mL
Method: The dissolution test was carried out by the paddle method using FaSSIF (an aqueous solution containing 3 mM sodium taurocholate, 0.75 mM lecithin, 29 mM sodium dihydrogen phosphate and 103 mM potassium chloride and adjusted to pH 6.5 by adding dropwise a sodium hydroxide aqueous solution) as the test solution. About 10 mg of the test compound was added to 100 mL of the test solution. Under the condition at 37° C. and 50 rpm, the test solution was stirred using a paddle. After the start of the stirring, 1 mL of the test solution was collected at each of the time points shown in Table 6 and filtered through a filter. A concentration of the test compound in the filtrate was measured by high-performance liquid chromatography (HPLC conditions were the same conditions described in Test Example 2).

[2] = Solubility test (24 h shaking at room temperature, HPLC); format: physicochemical; details: thermodynamic from solid
Method: About 1 mg of the test compound was weighed into a test tube and 1 mL of a test solution was added. For the test solutions, a 0.1 M hydrochloric acid aqueous solution (pH 1) and Britton-Robinson buffers (pH 3, pH 5 and pH 7; ionic strength 0.3) were used. The test solution was shaken at room temperature for 24 hours and subsequently filtered through a filter. A concentration of the test compound in the filtrate was measured by high-performance liquid chromatography to evaluate solubility. […] Additionally, high-performance liquid chromatography (HPLC) conditions are shown below.
Column; YMC-Pack Pro C18, 4.6 mm×35 mm, 3 μm
Mobile phase A; water:acetonitrile:70% perchloric acid=900:100:1
Mobile phase B; water:acetonitrile:70% perchloric acid=100:900:1
Column temperature; 40° C.
Detection wavelength; 275 nm

[3] = aqueous buffer, pH 3, Britton-Robinson buffer
[4] = aqueous buffer, pH 5, Britton-Robinson buffer
[5] = aqueous buffer, pH 7, Britton-Robinson buffer
[6] = simulated gastric fluid, pH 1, 0.1M hydrochloric acid aqueous solution

Concentration of Test compound ([1]; 10 Min) [ng/mL]	Concentration of Test compound ([1]; 20 Min) [ng/mL]	Concentration of Test compound ([1]; 24 Hours) [ng/mL]	Concentration of Test compound ([1]; 30 Min) [ng/mL]	Concentration of Test compound ([1]; 40 Min) [ng/mL]	Concentration of Test compound ([1]; 60 Min) [ng/mL]	Concentration of Test compound ([1]; 90 Min) [ng/mL]	Concentration of Test compound ([1]; 120 Min) [ng/mL]	Concentration of Test compound ([1]; 180 Min) [ng/mL]	Concentration of Test compound ([1]; 240 Min) [ng/mL]	solubility at 24 h [2, 3] [µg/mL]	solubility at 24 h [2, 4] [µg/mL]	solubility at 24 h [2, 5] [µg/mL]	solubility at 24 h [2, 6] [µg/mL]	Structure (SMILES)
30000	38000	103000	46000	51000	61000	72000	78000	85000	87000	< 1	1	> 1200	4	CO[C@H]1CN(C(=O)c2cc3nc(-c4cc(F)c(Cl)c(F)c4)cc(N(C)c4c(C)cccc4F)n3n2)CC[C@H]1CC(=O)O.Cl [Example 1, 2-((3R,4S)-1-(5-(4-chloro-3,5-difluorophenyl)-7-((2-fluoro-6-methylphenyl)(methyl)amino)pyrazolo[1,5-a]pyrimidine-2-carbonyl)-3-methoxypiperidin-4-yl)acetic Acid Hydrochloride]
4000	7000	18000	8000	9000	10000	11000	11000	12000	12000	< 1	< 1	13 (≈ 21.6 µM)	< 1	CO[C@H]1CN(C(=O)c2cc3nc(-c4cc(F)c(Cl)c(F)c4)cc(N(C)c4c(C)cccc4F)n3n2)CC[C@H]1CC(=O)O [Reference Example 4, 2-((3R,4S)-1-(5-(4-chloro-3,5-difluorophenyl)-7-((2-fluoro-6-methylphenyl)(methyl)amino)pyrazolo[1,5-a]pyrimidine-2-carbonyl)-3-methoxypiperidin-4-yl)acetic Acid]
